Reference: patent publication US10980822B2, “Medicinal composition comprising SGLT-2 inhibitor and angiotensin receptor blocker” (AUTOTELIC BIO INC., priority 2017, dated 2021)

Columns and labels:
[1] = test system: spontaneously hypertensive rats (SHRs); experiment: 2-week evaluation of blood pressure lowering effect (non-invasive tail blood pressure, CODA-6); type: in vivo, rat; conditions: olmesartan medoxomil 1, valsartan 4, telmisartan 4, dapagliflozin (as propylene glycol hydrate) 1 mg/kg/day; for Systolic blood pressure immediately before administration: 10-week-old SHR, baseline, mean of 5 rats; for Size of blood pressure reduction / Systolic blood pressure at 14th day after administration: SHR; for Size of blood pressure reduction: 14th day versus before administration; for Systolic blood pressure at 14th day after administration: once daily for 14 days, measured 2 hours after dosing
Description: The SHR rats are rats derived from Wistar Kyoto WKY) rats with normal blood pressure, and are rats that spontaneously develop hypertension with aging without any artificial treatment. […] The blood pressure in the experimental animals was measured using a CODA-6 system (Kent Scientific Corp.) which is a non-invasive blood pressure (NIBP) measurement system. […] The rats were divided into total 7 groups according to the kind of drug to be administered, and five rats were randomly assigned to each group. The groups administered with each drug are as follows: (2) a group administered with 1 mg/kg/day of olmesartan medoxomil alone; (3) a group administered with 4 mg/kg/day of valsartan alone; (4) a group administered with 4 mg/kg/day of telmisartan alone; (5) a group administered with a combination of 1 mg/kg/day of olmesartan medoxomil+1 mg/kg/day of dapagliflozin; (6) a group administered with a combination of 4 mg/kg/day of valsartan+1 mg/kg/day of dapagliflozin; (7) a group administered with a combination of 4 mg/kg/day of telmisartan+1 mg/kg/day of dapagliflozin. (*In this Example, a dapagliflozin propylene glycol hydrate corresponding to 1 mg of dapagliflozin was administered actually). For drug administration, each drug was administered to each rat once a day at a predetermined dose at the same time every morning. Considering that the amounts of antihypertensive drugs used in humans are different, the antihypertensive drugs were administered at different doses.

[2] = test system: SHR rats; experiment: 4-week evaluation of blood pressure lowering effect (non-invasive tail systolic and diastolic blood pressure); type: in vivo, rat; conditions: for Diastolic blood pressure at 1st week after administration / Diastolic blood pressure at 2nd week after administration / Diastolic blood pressure at 3rd week after administration / Diastolic blood pressure at 4th week after administration / Systolic blood pressure at 1st week after administration / Systolic blood pressure at 2nd week after administration / Systolic blood pressure at 3rd week after administration / Systolic blood pressure at 4th week after administration: oral once daily; for Diastolic blood pressure immediately after administration / Systolic blood pressure immediately after administration: oral, mean of 8 rats
Description: As experimental animals, 6-week-old male SHR rats were used (however, WKY rats were used as a normal control). A method for measurement of blood pressure is as follows: […] The rats were divided into total 7 groups according to the kind of drug to be administered, and eight rats were randomly assigned to each group. The groups administered with each drug are as follows: (3) a group administered with test substance 1 (G3): a group administered with a combination of 2 mg/kg/day of olmesartan medoxomil+1 mg/kg/day of dapagliflozin; (4) a group administered with test substance 2 (G4): a group administered with a combination of 2 mg/kg/day of olmesartan medoxomil+3 mg/kg/day of dapagliflozin; (5) a group administered with comparative substance 1 (G5): a group administered with 2 mg/kg/day of olmesartan medoxomil alone; (6) a group administered with comparative substance 2 (G6): a group administered with 1 mg/kg/day of dapagliflozin alone; (7) a group administered with […]: a group administered with 3 mg/kg/day of dapagliflozin alone. (* In this Experimental Example, dapagliflozin was administered in an anhydride form, not a solvate form). For drug administration, each drug was forcibly administered into the rat's stomach through a disposable syringe with an oral zonde at a predetermined dose at the same time every day. As test substances, olmesartan medoxomil was administered, and then immediately dapagliflozin was administered. The doses of the antihypertensive drug and the antidiabetic drug were determined considering the doses to be applied in clinical practice.

[3] = SHR, 1st to 4th week, olmesartan medoxomil 2 mg/kg/day with (G3) or without (G5) dapagliflozin 1 mg/kg/day
[4] = SHR, olmesartan medoxomil 2 mg/kg/day and/or dapagliflozin 1 mg/kg/day (G3, G5, G6)
[5] = p<0.01 at 1st, 2nd, 3rd and 4th week, olmesartan medoxomil 2 mg/kg/day with (G3) or without (G5) dapagliflozin 1 mg/kg/day
[6] = SHR, dapagliflozin 3 mg/kg/day with (G4) or without (G7) olmesartan medoxomil 2 mg/kg/day

SMILES | Systolic blood pressure immediately before administration [1] [mmHg] | Size of blood pressure reduction [1] [mmHg] | Systolic blood pressure at 14th day after administration [1] [mmHg] | Diastolic blood pressure at 1st week after administration [2, 4] [mmHg] | Diastolic blood pressure at 2nd week after administration [2, 4] [mmHg] | Diastolic blood pressure at 3rd week after administration [2, 4] [mmHg] | Diastolic blood pressure at 4th week after administration [2, 4] [mmHg] | Systolic blood pressure at 1st week after administration [2, 4] [mmHg] | Systolic blood pressure at 2nd week after administration [2, 4] [mmHg] | Systolic blood pressure at 3rd week after administration [2, 4] [mmHg] | Systolic blood pressure at 4th week after administration [2, 4] [mmHg] | Diastolic blood pressure immediately after administration [2, 4] [mmHg] | Systolic blood pressure immediately after administration [2, 4] [mmHg] | also measured
CCCc1nc2c(C)cc(-c3nc4ccccc4n3C)cc2n1Cc1ccc(-c2ccccc2C(=O)O)cc1 [Telmisartan, telmisartan] | 203 | 35 | 168 |  |  |  |  |  |  |  |  |  |  | 
CCCc1nc(C(C)(C)O)c(C(=O)OCc2oc(=O)oc2C)n1Cc1ccc(-c2ccccc2-c2nnn[nH]2)cc1 [Olmesartan medoxomil, olmesartan medoxomil] | 202 | 39 | 163 | 127 | 153 | 153 | 172 | 159 | 181 | 178 | 190 | 140 | 171 | Range of mean diastolic blood pressure [2, 3]: 127 to 172 mmHg; Range of mean systolic blood pressure [2, 3]: 159 to 190 mmHg; Mean diastolic blood pressure compared with negative control group (G2) [2, 5]: statistically significantly lower; Mean systolic blood pressure compared with negative control group (G2) [2, 5]: statistically significantly lower
CCOc1ccc(Cc2cc([C@@H]3O[C@H](CO)[C@@H](O)[C@H](O)[C@H]3O)ccc2Cl)cc1 [dapagliflozin] |  |  |  | 154 | 179 | 175 | 187 | 185 | 213 | 204 | 211 | 142 | 172 | Diastolic blood pressure at 1st week after administration [2, 6]: 149 mmHg; Diastolic blood pressure at 2nd week after administration [2, 6]: 188 mmHg; Diastolic blood pressure at 3rd week after administration [2, 6]: 204 mmHg; Diastolic blood pressure at 4th week after administration [2, 6]: 186 mmHg; Systolic blood pressure at 1st week after administration [2, 6]: 189 mmHg; Systolic blood pressure at 2nd week after administration [2, 6]: 219 mmHg; Systolic blood pressure at 3rd week after administration [2, 6]: 228 mmHg; Systolic blood pressure at 4th week after administration [2, 6]: 212 mmHg; Diastolic blood pressure immediately after administration [2, 6]: 139 mmHg; Systolic blood pressure immediately after administration [2, 6]: 172 mmHg
CCCCC(=O)N(Cc1ccc(-c2ccccc2-c2nnn[nH]2)cc1)[C@H](C(=O)O)C(C)C [Valsartan, valsartan] | 200 | 30 | 170 |  |  |  |  |  |  |  |  |  |  | 
